The subject of one experiment is prostate line LNCap. Put plainly: In vitro cell culture growth assay (MTS), LNCap.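 Also: viable cell density read by absorbance at 490 nm, growth expressed as percent of vehicle-treated cells on the same plate.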 Format: cell-based, human. The settings on record: Homo sapiens, LNCaP, 72 h, LNCap cells, three days after drug treatment.
A further experiment relates to breast line MDA468. Put plainly: In vitro cell culture growth assay (MTS), MDA468. Type of experiment: cell-based, human. Conditions: Homo sapiens, 72 h, MDA468 cells, three days after drug treatment. A digest of the protocol: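 Steps: plate cells; add inhibitors the next day; incubate 3 days; add MTS dye, which viable cells convert metabolically; measure absorbance at 490 nm; calculate percent of control growth relative to vehicle-treated cells in the same plate.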

The target of the next experiment is PI3K (Homo sapiens, UniProt P42336). Put plainly: Fluorescence polarization assay for PI3K.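 Also: PI3K kinase reaction on PIP2 with ATP, 30-60 min, product sensed by GST-GRP with red probe in fluorescence polarization (mP), controls without enzyme and at zero time.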 Format: biochemical. Conditions: PI3Kα; read-out: PI3Kα IC50.

A value given as a limit tells only on which side of the number the result lay.

PI3K, sequence (P42336 whole entry): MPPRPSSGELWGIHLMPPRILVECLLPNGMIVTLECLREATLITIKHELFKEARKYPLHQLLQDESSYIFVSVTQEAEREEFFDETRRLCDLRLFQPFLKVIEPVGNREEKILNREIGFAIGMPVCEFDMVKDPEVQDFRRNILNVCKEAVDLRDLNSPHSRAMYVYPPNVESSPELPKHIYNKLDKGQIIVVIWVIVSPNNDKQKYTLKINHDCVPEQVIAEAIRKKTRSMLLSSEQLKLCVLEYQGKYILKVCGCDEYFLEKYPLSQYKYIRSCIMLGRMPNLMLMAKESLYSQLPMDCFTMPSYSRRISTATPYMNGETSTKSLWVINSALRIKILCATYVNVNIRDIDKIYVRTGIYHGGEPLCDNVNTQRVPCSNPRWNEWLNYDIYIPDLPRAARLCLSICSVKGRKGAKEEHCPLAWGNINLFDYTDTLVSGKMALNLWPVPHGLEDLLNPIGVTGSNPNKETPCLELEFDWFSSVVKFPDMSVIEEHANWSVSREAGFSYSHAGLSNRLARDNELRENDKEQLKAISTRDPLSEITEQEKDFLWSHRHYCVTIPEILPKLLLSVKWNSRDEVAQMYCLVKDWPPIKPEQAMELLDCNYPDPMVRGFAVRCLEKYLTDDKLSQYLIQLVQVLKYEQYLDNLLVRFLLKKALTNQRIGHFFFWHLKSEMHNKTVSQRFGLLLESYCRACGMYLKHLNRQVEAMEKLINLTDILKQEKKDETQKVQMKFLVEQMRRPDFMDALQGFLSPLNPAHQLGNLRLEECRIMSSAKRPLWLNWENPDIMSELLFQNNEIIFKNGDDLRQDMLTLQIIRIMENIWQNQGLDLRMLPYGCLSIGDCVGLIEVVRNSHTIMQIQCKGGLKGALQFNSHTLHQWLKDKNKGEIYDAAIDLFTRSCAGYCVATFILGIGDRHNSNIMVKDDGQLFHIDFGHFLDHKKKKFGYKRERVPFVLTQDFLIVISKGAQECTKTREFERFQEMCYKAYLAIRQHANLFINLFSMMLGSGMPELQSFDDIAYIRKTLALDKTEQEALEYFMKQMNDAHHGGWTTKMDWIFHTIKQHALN
PI3K, sequence (P27986 whole entry partner): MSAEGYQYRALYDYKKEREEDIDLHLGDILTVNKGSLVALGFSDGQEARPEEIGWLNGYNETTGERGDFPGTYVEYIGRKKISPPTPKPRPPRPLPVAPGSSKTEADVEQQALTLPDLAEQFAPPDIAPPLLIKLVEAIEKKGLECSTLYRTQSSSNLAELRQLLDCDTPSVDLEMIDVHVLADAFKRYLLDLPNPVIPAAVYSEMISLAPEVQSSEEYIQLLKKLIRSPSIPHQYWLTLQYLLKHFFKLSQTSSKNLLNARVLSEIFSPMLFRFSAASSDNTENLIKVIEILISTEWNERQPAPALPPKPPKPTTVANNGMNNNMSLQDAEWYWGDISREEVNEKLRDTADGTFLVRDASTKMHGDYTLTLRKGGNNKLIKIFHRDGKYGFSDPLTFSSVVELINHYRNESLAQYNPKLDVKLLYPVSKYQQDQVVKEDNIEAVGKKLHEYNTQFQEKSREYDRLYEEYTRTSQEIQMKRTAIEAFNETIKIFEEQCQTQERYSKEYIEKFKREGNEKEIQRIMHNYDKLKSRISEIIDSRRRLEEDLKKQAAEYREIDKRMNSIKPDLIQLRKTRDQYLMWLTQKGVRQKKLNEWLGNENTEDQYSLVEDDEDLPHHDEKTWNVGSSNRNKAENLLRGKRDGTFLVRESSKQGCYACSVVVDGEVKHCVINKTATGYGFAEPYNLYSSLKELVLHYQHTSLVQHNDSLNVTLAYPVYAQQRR

As to `CNC(=O)Nc1ccc(-c2nc(N3CCOCC3)c3cnn(C4CCN(C(=O)c5ccc(C#N)cc5)CC4)c3n2)cc1` [Example 368, 1-(4-{1-[1-(4-cyanobenzoyl)piperidin-4-yl]-4-morpholin-4-yl-1H-pyrazolo[3,4-d]pyrimidin-6-yl}phenyl)-3-methylurea], the concentration for half-maximal inhibition (IC50) with prostate line LNCap came to 150 nM; with breast line MDA468, 200 nM; at PI3K, 89 nM.
In the same order, the values of `CCOC(=O)CN1CCC(n2ncc3c(N4CCOCC4)nc(-c4ccc(NC(=O)NC)cc4)nc32)CC1` [Compound 795, ethyl [4-(6-{4-[(methylcarbamoyl)amino]phenyl}-4-morpholin-4-yl-1H-pyrazolo[3,4-d]pyrimidin-1-yl)piperidin-1-yl]acetate] are 102 nM, 420 nM and 158 nM.
With `CC(C)(C)OC(=O)N1CCC(n2ncc3c(N4CCOCC4)nc(-c4ccc(NC(=O)Nc5ccc(CO)cc5)cc4)nc32)CC1` [Compound 953, tert-butyl 4-{6-[4-({[4-(hydroxymethyl)phenyl]carbamoyl}amino)phenyl]-4-morpholin-4-yl-1H-pyrazolo[3,4-d]pyrimidin-1-yl}piperidine-1-carboxylate], the IC50 in the experiment on prostate line LNCap turned out to be 0.8 nM; in the experiment on breast line MDA468 it was 14 nM; on PI3K, 7 nM.
For `CCNC(=O)Nc1ccc(-c2nc(N3CCOCC3)c3cnn(C4CCN(C(=O)C(C)C)CC4)c3n2)cc1` [Compound 822, 1-ethyl-3-{4-[1-(1-isobutyrylpiperidin-4-yl)-4-morpholin-4-yl-1H-pyrazolo[3,4-d]pyrimidin-6-yl]phenyl}urea], in that order: 120 nM, 500 nM and 1230 nM.
In the same order, the values of `CCONC(=O)Nc1ccc(-c2nc(N3CCOCC3)c3cnn(C4CCN(Cc5ccccc5)CC4)c3n2)cc1` [Example 287, 1-{4-[1-(1-benzylpiperidin-4-yl)-4-morpholin-4-yl-1H-pyrazolo[3,4-d]pyrimidin-6-yl]phenyl}-3-ethoxyurea] are 680 nM, 200 nM and 273 nM.
For `CCOC(=O)N1CCC(n2ncc3c(N4CCOC[C@@H]4C)nc(-c4ccc(NC(=O)Nc5cccnc5)cc4)nc32)CC1` [Compound 897, ethyl 4-(4-[(3S)-3-methylmorpholin-4-yl]-6-{4-[(pyridin-3-ylcarbamoyl)amino]phenyl}-1H-pyrazolo[3,4-d]pyrimidin-1-yl)piperidine-1-carboxylate], in that order: 40 nM, 320 nM and 28 nM.
For `O=CNc1ccc(-c2nc(N3CCOCC3)c3cnn(-c4ccccc4)c3n2)cc1` [Compound 118], the IC50 in the experiment with prostate line LNCap came out at 7000 nM; in the experiment on breast line MDA468, 20000 nM; on PI3K it was 122 nM.
With `CCNC(=O)Nc1ccc(-c2nc(N3CCOCC3)c3cnn(C4CCN(C(=O)c5cccnc5)CC4)c3n2)c(F)c1` [Example 462, 1-ethyl-3-(3-fluoro-4-{4-morpholin-4-yl-1-[1-(pyridin-3-ylcarbonyl)piperidin-4-yl]-1H-pyrazolo[3,4-d]pyrimidin-6-yl}phenyl)urea], the figures for the IC50 in the experiment on prostate line LNCap, in the experiment with breast line MDA468 and at PI3K were 900 nM, 900 nM and 1620 nM, respectively.
Take `CC1CN(c2nc(-c3cccc(O)c3)nc3c2cnn3-c2ccccc2)CCO1` (stereo not drawn) [Compound 943, 3-[4-(2-methylmorpholin-4-yl)-1-phenyl-1H-pyrazolo[3,4-d]pyrimidin-6-yl]phenol]: the results for the IC50 in the experiment with prostate line LNCap, in the experiment with breast line MDA468 and on PI3K were 1900 nM, 7500 nM and 276 nM, respectively.
For `COC(=O)N1CCC(n2ncc3c(N4CCOCC4)nc(-c4ccc(NC(=O)Nc5ccc(CCNCCN)cc5)cc4)nc32)CC1` [Compound 920, methyl 4-[6-(4-{[(4-{2-[(2-aminoethyl)amino]ethyl}phenyl)carbamoyl]amino}phenyl)-4-morpholin-4-yl-1H-pyrazolo[3,4-d]pyrimidin-1-yl]piperidine-1-carboxylate], in that order: 0.8 nM, 300 nM and 4 nM.
Take `NCCNC(=O)Nc1ccc(-c2nc(N3CCOCC3)c3cnn(C4CCN(Cc5ccccc5)CC4)c3n2)cc1` [Example 267, 1-(2-aminoethyl)-3-{4-[1-(1-benzylpiperidin-4-yl)-4-morpholin-4-yl-1H-pyrazolo[3,4-d]pyrimidin-6-yl]phenyl}urea]: the IC50 worked out at 2000 nM in the experiment on prostate line LNCap, 2700 nM in the experiment with breast line MDA468 and 14 nM on PI3K.
In the same order, the values of `CCOC(=O)N1CCC(n2ncc3c(N4CCOC[C@H]4C)nc(-c4ccc(NC(=O)NCCF)cc4)nc32)CC1` [Compound 890, ethyl 4-{6-(4-{[(2-fluoroethyl)carbamoyl]amino}phenyl)-4-[(3R)-3-methylmorpholin-4-yl]-1H-pyrazolo[3,4-d]pyrimidin-1-yl}piperidine-1-carboxylate] are 12 nM, 500 nM and 4550 nM.
As for `COc1cccc(-c2nc(N3CCOCC3)c3cnn(C4CCN(Cc5ccccc5)CC4)c3n2)c1` [Example 32], the results for the IC50 in the experiment on prostate line LNCap, in the experiment with breast line MDA468 and at PI3K were 8800 nM, 10000 nM and 1440 nM, respectively.
In the same order, the values of `CNC(=O)Nc1ccc(-c2nc(N3CCOCC3)c3cnn(C4CCN(Cc5cccc(C)c5)CC4)c3n2)cc1` [Example 430, 1-methyl-3-(4-{1-[1-(3-methylbenzyl)piperidin-4-yl]-4-morpholin-4-yl-1H-pyrazolo[3,4-d]pyrimidin-6-yl}phenyl)urea] are 52 nM, 200 nM and 42 nM.
For `O=C(Nc1ccc(-c2nc(N3CCOCC3)c3cn[nH]c3n2)cc1)c1cccnc1` [Compound 524, N-[4-(4-morpholin-4-yl-1H-pyrazolo[3,4-d]pyrimidin-6-yl)phenyl]nicotinamide], in that order: 7200 nM, 60000 nM and 1170 nM.
For `CN(C)CC(=O)Nc1ccc(-c2nc(N3CCOCC3)c3cn[nH]c3n2)cc1` [Compound 281, N~2~,N~2~-dimethyl-N-[4-(4-morpholin-4-yl-1H-pyrazolo[3,4-d]pyrimidin-6-yl)phenyl]glycinamide], in that order: 7000 nM, 18000 nM and 2270 nM.
As to `NCc1cccc(-c2nc(N3CCOCC3)c3cnn(-c4ccccc4)c3n2)c1` [Compound 144], the values for the IC50 in the experiment on prostate line LNCap, in the experiment with breast line MDA468 and at PI3K were 2400 nM, 3800 nM and 627 nM, respectively.
For `NCC(=O)Nc1ccc(-c2nc(N3CCOCC3)c3cn[nH]c3n2)cc1` [Compound 282, N-[4-(4-morpholin-4-yl-1H-pyrazolo[3,4-d]pyrimidin-6-yl)phenyl]glycinamide], in that order: 9000 nM, 11000 nM and 128 nM.
For `CONC(=O)Nc1ccc(-c2nc(N3CCOCC3)c3cnn(C4CCN(C(=O)c5cccnc5)CC4)c3n2)cc1` [Example 308, 1-methoxy-3-(4-{4-morpholin-4-yl-1-[1-(pyridin-3-ylcarbonyl)piperidin-4-yl]-1H-pyrazolo[3,4-d]pyrimidin-6-yl}phenyl)urea], in that order: 800 nM, 3000 nM and 1810 nM.
In the same order, the values of `COCC(=O)N1CCC(n2ncc3c(N4CCOCC4)nc(-c4ccc5[nH]ccc5c4)nc32)CC1` [Example 40] are 800 nM, 900 nM and 3750 nM.
On to `O=C(Nc1ccccc1)Nc1cc(F)c(-c2nc(N3CCOCC3)c3cnn(C4CCN(C(=O)c5cccnc5)CC4)c3n2)cc1F` [Example 469, 1-(2,5-difluoro-4-{4-morpholin-4-yl-1-[1-(pyridin-3-ylcarbonyl)piperidin-4-yl]-1H-pyrazolo[3,4-d]pyrimidin-6-yl}phenyl)-3-phenylurea], for which the IC50 in the experiment on prostate line LNCap was 170 nM; in the experiment with breast line MDA468, 600 nM; at PI3K, 173 nM.
Take `CNC(=O)Nc1ccc(-c2nc(N3CCOCC3)c3cnn(C4CCN(C(=O)c5ccc(C)cc5)CC4)c3n2)cc1` [Compound 613, 1-methyl-3-(4-{1-[1-(4-methylbenzoyl)piperidin-4-yl]-4-morpholin-4-yl-1H-pyrazolo[3,4-d]pyrimidin-6-yl}phenyl)urea]: the IC50 in the experiment on prostate line LNCap was less than 27 nM; in the experiment on breast line MDA468 it was 85 nM; at PI3K, 42 nM.
For `COCCN1CCC(n2ncc3c(N4CCOCC4)nc(-c4ccc5[nH]ccc5c4)nc32)CC1` [Compound 241, 6-(1H-indol-5-yl)-1-[1-(2-methoxyethyl)piperidin-4-yl]-4-morpholin-4-yl-1H-pyrazolo[3,4-d]pyrimidine], in that order: 2400 nM, 4200 nM and 5000 nM.
As for `COC(=O)N1CCC(n2ncc3c(N4CCOCC4)nc(-c4ccc(NC(=O)Nc5ccc(N6CCOCC6)nc5)cc4)nc32)CC1` [Compound 911, methyl 4-[4-morpholin-4-yl-6-(4-{[(6-morpholin-4-ylpyridin-3-yl)carbamoyl]amino}phenyl)-1H-pyrazolo[3,4-d]pyrimidin-1-yl]piperidine-1-carboxylate], the IC50 in the experiment on prostate line LNCap came to 0.8 nM; with breast line MDA468, 10 nM; at PI3K, 118 nM.
In the same order, the values of `COCCN1CCC(n2ncc3c(N4CCOCC4)nc(-c4ccc5[nH]ccc5c4)nc32)CC1` [Compound 491, 6-(1H-indol-5-yl)-1-[1-(2-methoxyethyl)piperidin-4-yl]-4-morpholin-4-yl-1H-pyrazolo[3,4-d]pyrimidine] are 2400 nM, 4200 nM and 5000 nM.
With `CN(C)c1ccc(CC(=O)Nc2ccc(-c3nc(N4CCOCC4)c4cnn(C5CCCCO5)c4n3)cc2)cc1` (stereo not drawn) [Compound 276, 2-[4-(dimethylamino)phenyl]-N-{4-[4-morpholin-4-yl-1-(tetrahydro-2H-pyran-2-yl)-1H-pyrazolo[3,4-d]pyrimidin-6-yl]phenyl}acetamide], the IC50 with prostate line LNCap is 11000 nM; in the experiment on breast line MDA468, 60000 nM; on PI3K it was 6470 nM.

These data come from patent US20080234262A1 (Wyeth, priority 2007, published 2008).
